“Also recorded” adds a separate entry of the source. Like-named read-outs stand apart in the source and are kept apart here. Where a SMILES comes first, the peptide text is derived from it.
How the values were obtained:
[1] = molecular target: T1, KcsA-Kv1.2 T-only chimera (Streptomyces lividans, UniProt P0A334, R52A/G53D/A54E/P55R/G56E/A57S/L59F/I60P/T61S/Y62I/R64D); test: Phage-binding competition assay, KcsA-Kv1.2 T-only; set-up: species or system human Kv1.2 turret in Streptomyces lividans KcsA; details: for binding to KcsA-Kv1.2 T-only, in words: HgTx1-phage competition, Fig. 7E (ligand-binding pattern); for Rank, T-only chimera (Kv1.2): rank by competition IC50 among MTX, ShK, KTX1
T1 sequence (P0A334 1-160 R52A/G53D/A54E/P55R/G56E/A57S/L59F/I60P/T61S/Y62I/R64D): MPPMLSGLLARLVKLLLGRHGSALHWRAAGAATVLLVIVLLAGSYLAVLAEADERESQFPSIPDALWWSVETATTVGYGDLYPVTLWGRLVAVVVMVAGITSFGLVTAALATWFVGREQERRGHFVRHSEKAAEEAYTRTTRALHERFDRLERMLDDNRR
Method: (§1) Phage stock solutions were diluted to working concentration with phage resuspension buffer supplemented with 2 mM DDM. For protein immobilization, the following amounts were used in a final volume of 50 μl/well: wt KcsA, 0.1 μg; KcsA-Kv1.1 T-only, 0.005 μg; KcsA-Kv1.1 T+F, 0.02 μg; KcsA-Kv1.2 T-only, 0.01 μg; KcsA-Kv1.2 T+F, 0.1 μg; KcsA-Kv1.3 T-only, 0.01 μg; and KcsA-Kv1.3 T+F, 0.1 μg. Protein samples were diluted in 50 μl of storage buffer (20 mM Tris pH8.0, 300 mM KCl, 2 mM DDM) and were added to the designated wells of a Pierce Clear, 96-Well Nickel Coated Plate (15442, Thermo Fisher Scientific), then incubated for 1 h at room temperature on a horizontal shaker at 130 rpm. The plate was blocked for 1 h at room temperature with 180 μl/well TBS-BSA supplemented with 1 mM DDM. Following blocking, the wells were washed 4× with washing buffer (300 μl TBS-Tween, 0.1% v/v) using a Wellwash Versa microplate washer (Thermo Fisher Scientific); then 50 μl phage solution (in TBS-BSA-Tween, 0.1% v/v, 2 mM DDM) at determined phage concentration was added to the wells and incubated for 1 h at room temperature on a horizontal shaker. The plate was washed 4× with washing buffer, then 50 μl anti-M13 IgG HRP (MA5-36125, Invitrogen) diluted to 1:2500 in TBS-Tween (0.1% v/v) was added to the wells and incubated for 1 h at room temperature. The plate was washed again 4× with 300 μl/well washing buffer. Finally, 50 μl/well 1-Step Ultra TMB-ELISA solution (34028, Thermo Fisher Scientific) was added to the wells, and the developing signal was stopped with 50 μl 1M HCl after 5 to 10 min. The light absorbance signal was read at 450 nm with Byonoy absorbance 96 plate reader (Byonoy GmbH).
(§2) For protein immobilization, the following amounts were used in a final volume of 50 μl/well: KcsA-Kv1.1 T-only, 0.005 μg; KcsA-Kv1.1 T+F, 0.01 μg; KcsA-Kv1.2 T-only, 0.025 μg; KcsA-Kv1.2 T+F, 0.0125 μg; KcsA-Kv1.3 T-only, 0.01 μg; and KcsA-Kv1.3 T+F, 0.1 μg. Protein samples were diluted in storage buffer. Binding of given concentrations of relevant ligand-displaying phages quantified by light absorbance ([…]) were investigated in a similar manner as in phage ELISA-binding assay, while different concentrations of competing toxin test substances were applied simultaneously. The results were converted to percent inhibitions (percent displacement) of the indicator phage binding, and relative affinities of the tested toxins were assessed by plotting percent displacements against log concentrations and determining half maximal inhibitory concentrations (IC50) by sigmoidal curve fitting using “Sigmoidal dose-response (variable slope) with least squares method” algorithm in GraphPad Prism 8 using the following equation: Y=Bottom+Top−Bottom/1+10^(LogEC50−×)⋅HillSlope

[2] = molecular target: T2, KcsA-Kv1.2 T-only chimera (Streptomyces lividans, UniProt P0A334, A54E/A57S/G53D/G56E/I60P/L59F/P55R/R52A/R64D/T61S/Y62I); test: Phage-binding competition assay, KcsA-Kv1.2 T-only; set-up: species or system human Kv1.2 turret in Streptomyces lividans KcsA
T2 sequence (P0A334 1-160 R52A/G53D/A54E/P55R/G56E/A57S/L59F/I60P/T61S/Y62I/R64D): T1 sequence (P0A334 1-160 R52A/G53D/A54E/P55R/G56E/A57S/L59F/I60P/T61S/Y62I/R64D)
Method: as §1, §2

[3] = HgTx1-phage competition, KcsA-Kv1.2 T-only, value given in figure, sigmoidal fit to means of three replicates, read-out: IC50 (Fig. 7E)

Structure (SMILES)	binding to KcsA-Kv1.2 T-only, in words [1]	Rank, T-only chimera (Kv1.2) [1]	IC50 [2, 3]	binding to KcsA-Kv1.2 T-only, in words ([1]; listed as MTX1)	IC50 ([2]; displacement of HgTx1-phage, KcsA-Kv1.2 T-only 0.025 μg/well on nickel-coated plate, mean ± SD (n = 3), NQ = not quantifiable, read-out: IC50, T-only chimera (Kv1.2))
CC[C@H](C)[C@H](NC(=O)[C@H](CCC(=O)O)NC(=O)[C@@H](NC(=O)CN)C(C)C)C(=O)N[C@@H](CC(N)=O)C(=O)N[C@H](C(=O)N[C@@H](CCCCN)C(=O)N[C@H]1CSSC[C@@H]2NC(=O)[C@H](CCCCN)NC(=O)CNC(=O)[C@H](Cc3ccccc3)NC(=O)[C@H](CCCNC(=N)N)NC(=O)[C@H](CCSC)NC(=O)CNC(=O)[C@H](C)NC(=O)[C@H](CC(=O)O)NC(=O)[C@H](CCCCN)NC(=O)[C@@H]3CSSC[C@@H](C(=O)N[C@H](C(=O)N4CCC[C@H]4C(=O)N[C@@H](CCCCN)C(=O)O)[C@@H](C)O)NC(=O)[C@H](Cc4c[nH]cn4)NC(=O)[C@H](CSSC[C@H](NC(=O)[C@H](CCC(N)=O)NC(=O)[C@@H]4CCCN4C(=O)[C@H](CO)NC(=O)CNC(=O)[C@H](CO)NC1=O)C(=O)N[C@@H](CC(C)C)C(=O)N[C@@H](CCCCN)C(=O)N1CCC[C@H]1C(=O)N3)NC(=O)[C@H](CCCCN)NC(=O)[C@H](CCCNC(=N)N)NC(=O)[C@H](CC(N)=O)NC(=O)[C@H](CCSC)NC2=O)C(C)C [KTX1, Kaliotoxin-1]	inconsistent with their published channel blocking potencies; also recorded: ShK > KTX1 > MTX	2	0.184 nM		
CC[C@H](C)[C@@H]1NC(=O)[C@@H]2CSSC[C@H](NC(=O)[C@H](CO)NC(=O)[C@@H](N)C(C)C)C(=O)N[C@@H]([C@@H](C)O)C(=O)NCC(=O)N[C@@H](CO)C(=O)N[C@@H](CCCCN)C(=O)N[C@@H](CC(=O)O)C(=O)N[C@@H](CSSC[C@@H](C(=O)N[C@@H](CCCCN)C(=O)N[C@H]3CSSC[C@@H](C(N)=O)NC(=O)CNC(=O)[C@H](Cc4ccc(O)cc4)NC3=O)NC(=O)[C@H](CO)NC(=O)[C@H](CCCCN)NC(=O)[C@H](CC(N)=O)NC1=O)C(=O)N[C@@H](Cc1ccc(O)cc1)C(=O)N[C@@H](C)C(=O)N1CCC[C@H]1C(=O)N[C@H]1CSSC[C@H](NC(=O)CNC(=O)[C@H]([C@@H](C)O)NC(=O)[C@H](CCC(N)=O)NC(=O)[C@H](CCCCN)NC(=O)[C@H](CCCNC(=N)N)NC1=O)C(=O)N1CCC[C@H]1C(=O)N[C@@H](CC(N)=O)C(=O)N[C@@H](C)C(=O)N[C@@H](CCCCN)C(=O)N2 [MTX, Maurotoxin] (HELM PEPTIDE1{V.S.C.T.G.S.K.D.C.Y.A.P.C.R.K.Q.T.G.C.P.N.A.K.C.I.N.K.S.C.K.C.Y.G.C.[am]}$PEPTIDE1,PEPTIDE1,3:R3-24:R3|PEPTIDE1,PEPTIDE1,9:R3-29:R3|PEPTIDE1,PEPTIDE1,13:R3-19:R3|PEPTIDE1,PEPTIDE1,31:R3-34:R3$$$V2.0; N-terminus and C-terminus assumed)	ShK > KTX1 > MTX; also recorded: completely lost its affinity	3		negligible binding	> 1000 nM
CC[C@H](C)[C@@H]1NC(=O)[C@@H](NC(=O)[C@H](CO)NC(=O)[C@@H](N)CCCNC(=N)N)CSSC[C@@H](C(=O)O)NC(=O)[C@H]([C@@H](C)O)NC(=O)CNC(=O)[C@@H]2CSSC[C@@H]3NC(=O)[C@H](CCC(N)=O)NC(=O)[C@H](Cc4ccccc4)NC(=O)[C@H](C)NC(=O)[C@H]([C@@H](C)O)NC(=O)[C@H](CSSC[C@H](NC(=O)[C@H](Cc4ccccc4)NC(=O)[C@H](CO)NC(=O)[C@H](CC(C)C)NC(=O)[C@H](CCCNC(=N)N)NC(=O)[C@H](Cc4ccc(O)cc4)NC(=O)[C@H](CCCCN)NC(=O)[C@H](CCSC)NC(=O)[C@H](CO)NC(=O)[C@H](Cc4c[nH]cn4)NC(=O)[C@H](CCCCN)NC3=O)C(=O)N[C@@H](CCCNC(=N)N)C(=O)N[C@@H](CCCCN)C(=O)N[C@@H]([C@@H](C)O)C(=O)N2)NC(=O)[C@H](CCCNC(=N)N)NC(=O)[C@H](CO)NC(=O)[C@H](CCCCN)NC(=O)[C@@H]2CCCN2C(=O)[C@H]([C@@H](C)CC)NC(=O)[C@H]([C@@H](C)O)NC(=O)[C@H](CC(=O)O)NC1=O [ShK, Stichodactyla toxin]	inconsistent with their published channel blocking potencies; also recorded: ShK > KTX1 > MTX	1	0.0701 nM		
